The source of these data is publication PMC6950293, “A Rapid Extraction Method Combined with a Monoclonal Antibody-Based Immunoassay for the Detection of Amatoxins” (Toxins, 2019).

Structures are written as SMILES. ≈ marks a conversion by molar mass, not a printed value. Read-outs that look alike come from different tables or passages of the source. *1 amine or outer side, *2 acyl side, *3 side chain or, on linkers, in order; H or OH if unused. Where a SMILES comes first, the peptide text is derived from it. Bridges are numbered along the chain shown (N, C = ends). [ ]: non-standard residue; d: D form. ξ: configuration not given here. Adda = CO[C@@H](Cc1ccccc1)[C@@H](C)/C=C(C)/C=C/[C@H](N[*:1])[C@H](C)C(=O)[*:2]; Trp(2-yl) = O=C([C@H](Cc1c([*:3])[nH]c2ccccc12)N[*:1])[*:2]; dAsp(3S-Me) = C[C@H](C(=O)[*:3])[C@@H](N[*:1])C(=O)[*:2]; ξTrp(2-yl) = O=C(C(Cc1c([*:3])[nH]c2ccccc12)N[*:1])[*:2]; Leu(4R-OH,5-OH) = C[C@](O)(CO)C[C@H](N)C(=O)O; d(γGlu) = O=C(O)[C@@H](CCC(=O)[*:2])N[*:1]; X1 = CC(O)(CO)CC(N[*:1])C(=O)[*:2]; cisHyp = O=C(O)[C@@H]1C[C@H](O)CN1; ξAsp(3ξ-OH) = NC(C(=O)O)C(O)C(=O)O; Hyp = O=C(O)[CH]1C[CH](O)CN1; NMeDha = C=C(NC)C(=O)O Some results are limits rather than exact numbers.

What is called IC50 is the concentration that inhibits the measured activity by half. A word on the LD50: it is the dose at which mortality reaches 50%.

Data set [1] concerns mAb AMA9G3. In words: indirect competitive ELISA (cELISA) with mAb AMA9G3. It is filed as binding, mouse. The following applies: for working range of detection (estimated as IC30 to IC80): AMA9G3.
In data set [2] the test system is mAb AMA9C12. In words: indirect competitive ELISA (cELISA) with mAb AMA9C12. In kind it is binding, mouse. On the technique in general: In an ELISA, binding on a coated surface is turned into a signal by an enzyme label.
For data set [3], the system named is polyclonal antibody (pAb). The settings on record: Bühlmann Assay ref 15; cited from earlier work.
For data set [4], the system named is mAb. The settings on record: another mAb, different coupling strategy ref 16; cited from earlier work.
Data set [5] deals with single chain variable fragment of a mAb. The settings on record: single chain variable fragment of a mAb ref 24; cited from earlier work.
Data set [6] deals with mice. The following applies: mice ref 6; cited from earlier work.
Data set [7] concerns humans. The settings on record: humans ref 7; cited from earlier work.
The mark [8] stands for this setting: mAb AMA9G3, coating antigen PERI-AMA-BSA, triplicate.
Where [9] appears, read: mAb AMA9G3, (IC50 α-AMA)/(IC50 test inhibitor) × 100.
Where [10] appears, read: mAb AMA9C12, coating antigen PERI-AMA-BSA, triplicate.
Setting [11] is: mAb AMA9C12, (IC50 α-AMA)/(IC50 test inhibitor) × 100.

As to `N[C@H](C(=O)O)c1cc(=O)[nH]o1` [ibotenic acid], the IC50 in data set [1] (setting [8]) and in data set [2] (setting [10]) was over 1 µg/mL in each case. For the same molecule, the “Cross Reactivity (%)” value in data set [1] (setting [9]) and in data set [2] (setting [11]) was under 0.3% in each case.
On to `CC[C@H](C)[C@@H]1NC(=O)CNC(=O)[C@@H]2Cc3c([nH]c4cc(O)ccc34)[S@+]([O-])C[C@H](NC(=O)CNC1=O)C(=O)N[C@@H](CC(N)=O)C(=O)N1C[C@H](O)C[C@H]1C(=O)N[C@@H]([C@@H](C)[C@@H](O)CO)C(=O)N2` [α-amanitin], for which the “working range of detection (estimated as IC30 to IC80)” value in data set [1] was 0.0007 to 0.0031 µg/mL. The “competitive inhibition / binding (in words)” value in data set [1] (mAb AMA9G3) and in data set [2] (mAb AMA9C12) was “competitively inhibited” each time. In addition, the IC50 in data set [1] (setting [8]) was 0.00157 ± 7e-05 µg/mL (≈ 0.00171 µM); in data set [1] (mAb AMA9G3, coating antigen PERI-AMA-BSA, triplicate, listed as α-AMA), “≈ 1.6 ng mL^−1”; in data set [2] (setting [10]) it was 0.00266 ± 0.00018 µg/mL (≈ 0.00289 µM); in data set [4], 0.066 µg/mL (≈ 0.0718 µM); in data set [5], 0.077 µg/mL (≈ 0.0838 µM). Besides, the “Cross Reactivity (%)” value in data set [1] (setting [9]), in data set [2] (setting [11]) and in data set [3] was 100% each time. Moreover, the LD50 in data set [6] is 0.1 mg/kg. Further, in data set [7], the dose severely toxic was 0.3 mg/kg.
Consider `C[C@@H]1NC(=O)[C@H](C[C@@](C)(O)CO)NC(=O)[C@@H]2Cc3c([nH]c4ccccc34)SC[C@H](NC(=O)[C@@H]([C@H](C)O)NC1=O)C(=O)N1C[C@@H](O)C[C@H]1C(=O)N[C@@H](C)C(=O)N2` [phalloidin] (cyclo(A[dT]C[cisHyp]A[Trp(2-yl)][Leu(4R-OH,5-OH)]); thioether 3-6), for which the IC50 in data set [1] (setting [8]) and in data set [2] (setting [10]) was over 1 µg/mL throughout. Also, the “Cross Reactivity (%)” value in data set [1] (setting [9]) is given as under 0.3%; in data set [2] (setting [11]), under 0.3%; in data set [3], “Not detected”.
As to `CC[C@H](C)[C@@H]1NC(=O)CNC(=O)[C@@H]2Cc3c([nH]c4cc(O)ccc34)[S+]([O-])C[C@H](NC(=O)CNC1=O)C(=O)N[C@@H](CC(=O)O)C(=O)N1CC(O)C[C@H]1C(=O)N[C@@H]([C@@H](C)[C@@H](O)CO)C(=O)N2` (stereo partly drawn) [β-amanitin], the “working range of detection (estimated as IC30 to IC80)” value in data set [1] is 0.0036 to 0.1291 µg/mL. In addition, the “competitive inhibition / binding (in words)” value was “competitively inhibited” in data set [1] (mAb AMA9G3) and “no reduction in signal response” in data set [2] (mAb AMA9C12). The half-maximal inhibitory concentration (IC50) in data set [1] (setting [8]) was 0.0242 ± 0.0062 µg/mL (≈ 0.0263 µM); in data set [1] (mAb AMA9G3, coating antigen PERI-AMA-BSA, triplicate, listed as β-AMA), 0.024 µg/mL (≈ 0.0261 µM); in data set [2] (setting [10]) it was over 1 µg/mL; in data set [4], 0.097 µg/mL (≈ 0.105 µM); in data set [5], 0.115 µg/mL (≈ 0.125 µM). The “Cross Reactivity (%)” value in data set [1] (setting [9]) is 6.5%; in data set [2] (setting [11]) it was under 0.3%; in data set [3], 0.1%.
On to `C=C1C(=O)N[C@H](C)C(=O)N[C@@H](CC(C)C)C(=O)N[C@@H](C(=O)O)[C@H](C)C(=O)N[C@@H](CCCNC(=N)N)C(=O)N[C@@H](/C=C/C(C)=C/[C@H](C)[C@H](Cc2ccccc2)OC)[C@H](C)C(=O)N[C@@H](C(=O)O)CCC(=O)N1C` [microcystin-LR] (R[Adda][d(γGlu)][NMeDha][dA]L[dAsp(3S-Me)]-OH; lactam N-7), for which the “Cross Reactivity (%)” value in data set [1] and in data set [2] was under 0.3% throughout. Besides, the IC50 in data set [1] and in data set [2] was over 1 µg/mL in each case.
Take `CN(C)CCc1c[nH]c2cccc(OP(=O)(O)O)c12` [psilocybin]: the IC50 in data set [1] (setting [8]) and in data set [2] (setting [10]) was over 1 µg/mL each time. The “Cross Reactivity (%)” value in data set [1] (setting [9]) and in data set [2] (setting [11]) was under 0.3% in each case.
`NCc1cc(=O)[nH]o1` [muscimol]: the IC50 in data set [1] (setting [8]) and in data set [2] (setting [10]) was over 1 µg/mL throughout. Moreover, the “Cross Reactivity (%)” value in data set [1] (setting [9]) and in data set [2] (setting [11]) was under 0.3% in each case.
Consider `CC1NC(=O)C2CC(O)CN2C(=O)C2CSc3[nH]c4ccccc4c3CC(NC1=O)C(=O)NC(CC(C)(O)CO)C(=O)NC(C(C)C)C(=O)NC(C(O)C(=O)O)C(=O)N2` (stereo not drawn) [phallacidin] (cyclo([ξAsp(3ξ-OH)]C[Hyp]A[ξTrp(2-yl)][X1]V); thioether 2-5; configuration not given here), for which the IC50 in data set [1] (setting [8]) and in data set [2] (setting [10]) was over 1 µg/mL each time. The “Cross Reactivity (%)” value in data set [1] (setting [9]) is under 0.3%; in data set [2] (setting [11]) it was under 0.3%; in data set [3], “Not detected”.
As to `C/C=C1/C(=O)N[C@@H](C(=O)O)[C@H](C)C(=O)N[C@@H](CCCNC(=N)N)C(=O)N[C@@H](/C=C/C(C)=C/[C@H](C)[C@H](Cc2ccccc2)OC)[C@H](C)C(=O)N[C@@H](C(=O)O)CCC(=O)N1C` [nodularin], in data set [1], the “Cross Reactivity (%)” value is given as under 0.3% and the 50% inhibitory concentration (IC50) was over 1 µg/mL. In data set [2], the “Cross Reactivity (%)” value was under 0.3% and the IC50 is over 1 µg/mL.
